Results taken from article PMC12281424, “A Rac-specific competitive inhibitor of guanine nucleotide binding reduces metastasis in triple-negative breast cancer” (Cell Reports Medicine, 2025).

Tests used:
CaMKIIβ(h) = CaMKIIβ(h) (Homo sapiens, UniProt Q13554); experiment: Kinase Profiler; format: biochemical
Protocol: (§1) The kinase profiler was performed by the company Eurofins (Discovery, Panlab and Cerep).

Blk(h) = Blk(h) (Homo sapiens, UniProt P51451); experiment: Kinase Profiler; format: biochemical
Protocol: Blood cell counts, kinase profiler, safety screen, bacterial cytotoxicity, Ames, micronucleus assays were performed by the company Eurofins (France). The kinase profiler was performed by the company Eurofins (Discovery, Panlab and Cerep).

Mnk2(h) = Mnk2(h) (Homo sapiens, UniProt Q9HBH9); experiment: Kinase Profiler; format: biochemical
Mnk2(h), sequence (Q9HBH9 whole entry): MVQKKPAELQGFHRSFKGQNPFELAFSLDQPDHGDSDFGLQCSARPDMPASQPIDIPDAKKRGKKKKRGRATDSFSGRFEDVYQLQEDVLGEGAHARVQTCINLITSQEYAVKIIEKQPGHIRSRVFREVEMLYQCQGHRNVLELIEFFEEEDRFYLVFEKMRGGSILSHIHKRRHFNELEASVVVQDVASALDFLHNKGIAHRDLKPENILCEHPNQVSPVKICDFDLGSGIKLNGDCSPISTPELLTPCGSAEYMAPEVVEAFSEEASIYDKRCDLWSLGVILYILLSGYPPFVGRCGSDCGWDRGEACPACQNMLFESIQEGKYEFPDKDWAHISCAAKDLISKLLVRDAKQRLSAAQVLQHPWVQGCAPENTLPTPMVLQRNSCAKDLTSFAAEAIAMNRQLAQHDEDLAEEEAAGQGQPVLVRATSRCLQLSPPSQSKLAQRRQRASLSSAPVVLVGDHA
Protocol: as §1

[1] = tested on: RAC1-dependent membrane ruffle formation in NIH 3T3 cells; experiment: EGF-induced membrane ruffle formation; format: cell-based; settings: EGF 10 ng/mL, inhibitors added 1 h prior; read-out: IC50, inhibition of ruffles formation
Protocol: Figure 2 Identification of a new RAC1 inhibitor (A) Effect of A41 and NSC23766 on ruffle formation (white arrows) induced by EGF (10 ng/mL) in NIH 3T3 cells in serum-free culture medium (CTL). Inhibitors were added at indicated concentration 1 h prior to EGF stimulation. To assess cytoskeleton organization, cells were incubated with Alexa Fluor 488 phalloidin to visualize F-actin. Results shown are representative of 3 independent experiments. Corresponding concentration-response curves have been established by counting the percentages of cells with ruffles (scale bars: 10 μm). (B) Immunoblot analysis and associated quantification of RAC-GTP level and total RAC expression in NIH 3T3 cells stimulated by EGF (10 ng/mL, 5 min) and pre-incubated or not (−) with NSC23766, A41, or A415 at 10^−5 M for 1 h (∗∗∗p < 0.001 vs. controls without EGF stimulation, ^###p < 0.001 vs. controls with EGF stimulation) (N > 3). […] (D) Representative in vitro nucleotide exchange catalyzed by the DH-PH of TIAM (10 nM) measured by the binding of fluorescent mant-GTP (1 μM) to RAC1 (0.5 μM, preloaded with GDP) in the presence of indicated concentrations of A41 (out of N = 6). […] (E) Kobs and Kmax were determined in each condition (N = 6). […]
After indicated treatments, cells were fixed with 4% paraformaldehyde and permeabilized in PBS 0.5% Triton X-100. […] Cancer cells were detected with firefly luciferase antibody (ab21176, Abcam) (dilution 1/500) overnight at room temperature, followed by secondary Alexa 488-labeled anti-rabbit antibody (dilution 1/1000). […] After staining, cells were mounted in Prolong gold antifade reagent with DAPI and images were captured by a fluorescence microscope. […]
Supp. […] For each molecule, druglikeness has been assessed according to Lipinski’s rules: molecular weight (MW)<500; high lipophilicity (LogP<5); less than 5 hydrogen bond donors (HBD); less than 10 hydrogen bond acceptors (HBA). The log P was calculated by using OSIRIS – Data Warrior software. […] IC50 was determined experimentally from the inhibition

WNK2(h) = WNK2(h) (Homo sapiens, UniProt Q9Y3S1); experiment: Kinase Profiler; format: biochemical
WNK2(h), sequence (Q9Y3S1 whole entry): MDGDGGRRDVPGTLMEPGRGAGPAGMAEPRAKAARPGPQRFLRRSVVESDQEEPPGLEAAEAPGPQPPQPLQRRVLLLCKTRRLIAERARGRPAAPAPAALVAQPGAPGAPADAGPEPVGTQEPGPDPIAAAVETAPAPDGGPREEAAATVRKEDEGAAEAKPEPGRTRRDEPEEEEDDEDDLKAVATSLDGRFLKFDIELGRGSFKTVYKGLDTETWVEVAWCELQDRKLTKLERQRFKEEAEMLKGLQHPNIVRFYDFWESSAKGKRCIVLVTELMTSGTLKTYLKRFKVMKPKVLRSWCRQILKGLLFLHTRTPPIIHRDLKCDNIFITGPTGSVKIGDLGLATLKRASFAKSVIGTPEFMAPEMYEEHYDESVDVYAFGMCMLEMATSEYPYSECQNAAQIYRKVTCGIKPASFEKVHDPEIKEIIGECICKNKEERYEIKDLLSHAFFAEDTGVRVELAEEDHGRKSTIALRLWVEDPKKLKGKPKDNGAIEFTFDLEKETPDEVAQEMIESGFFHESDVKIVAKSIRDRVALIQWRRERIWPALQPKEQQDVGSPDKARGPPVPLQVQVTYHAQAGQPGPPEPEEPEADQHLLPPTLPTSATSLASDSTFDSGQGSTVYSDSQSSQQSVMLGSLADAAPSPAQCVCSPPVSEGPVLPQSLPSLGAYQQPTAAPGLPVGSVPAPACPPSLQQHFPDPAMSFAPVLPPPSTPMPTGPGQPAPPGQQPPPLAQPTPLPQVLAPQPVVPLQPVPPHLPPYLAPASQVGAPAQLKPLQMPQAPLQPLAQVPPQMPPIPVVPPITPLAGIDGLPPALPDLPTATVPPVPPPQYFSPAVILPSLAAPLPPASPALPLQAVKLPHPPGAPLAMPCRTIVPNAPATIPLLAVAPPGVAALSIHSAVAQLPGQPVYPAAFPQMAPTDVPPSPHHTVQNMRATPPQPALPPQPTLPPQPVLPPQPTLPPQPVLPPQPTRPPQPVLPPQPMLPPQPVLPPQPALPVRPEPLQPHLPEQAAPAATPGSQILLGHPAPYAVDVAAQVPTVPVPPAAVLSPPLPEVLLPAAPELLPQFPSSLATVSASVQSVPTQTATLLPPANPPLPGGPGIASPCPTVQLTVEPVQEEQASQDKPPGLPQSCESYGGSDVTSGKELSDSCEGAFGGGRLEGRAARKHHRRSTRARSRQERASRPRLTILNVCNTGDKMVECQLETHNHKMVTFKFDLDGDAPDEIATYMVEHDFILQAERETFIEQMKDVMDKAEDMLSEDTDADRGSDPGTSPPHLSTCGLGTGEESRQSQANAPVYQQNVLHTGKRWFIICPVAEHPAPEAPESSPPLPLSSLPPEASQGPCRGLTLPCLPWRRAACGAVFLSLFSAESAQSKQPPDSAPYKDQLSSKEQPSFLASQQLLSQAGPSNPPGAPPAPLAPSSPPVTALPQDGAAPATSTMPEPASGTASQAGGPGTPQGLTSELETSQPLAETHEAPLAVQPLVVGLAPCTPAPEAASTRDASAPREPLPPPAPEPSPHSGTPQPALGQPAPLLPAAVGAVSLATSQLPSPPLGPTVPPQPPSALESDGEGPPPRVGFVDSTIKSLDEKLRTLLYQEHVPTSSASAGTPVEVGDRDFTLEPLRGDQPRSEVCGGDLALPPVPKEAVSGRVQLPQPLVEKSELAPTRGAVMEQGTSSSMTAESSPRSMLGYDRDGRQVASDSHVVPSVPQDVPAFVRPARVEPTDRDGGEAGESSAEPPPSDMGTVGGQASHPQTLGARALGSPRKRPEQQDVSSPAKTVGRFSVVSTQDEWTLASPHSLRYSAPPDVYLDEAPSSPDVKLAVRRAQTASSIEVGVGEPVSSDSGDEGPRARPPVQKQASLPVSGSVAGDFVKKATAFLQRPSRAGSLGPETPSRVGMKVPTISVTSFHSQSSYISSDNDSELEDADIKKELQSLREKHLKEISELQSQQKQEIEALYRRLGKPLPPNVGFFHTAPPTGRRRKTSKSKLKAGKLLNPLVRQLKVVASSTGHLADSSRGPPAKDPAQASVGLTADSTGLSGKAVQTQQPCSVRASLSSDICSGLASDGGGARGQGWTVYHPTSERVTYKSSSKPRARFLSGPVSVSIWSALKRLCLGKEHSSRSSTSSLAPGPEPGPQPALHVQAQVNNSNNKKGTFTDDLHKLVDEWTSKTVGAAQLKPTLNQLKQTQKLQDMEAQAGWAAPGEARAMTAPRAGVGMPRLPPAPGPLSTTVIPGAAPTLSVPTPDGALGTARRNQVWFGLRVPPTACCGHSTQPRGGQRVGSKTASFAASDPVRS
Protocol: as §1

TrkB(h) = TrkB(h) (Homo sapiens, UniProt Q16620); experiment: Kinase Profiler; format: biochemical
TrkB(h), sequence (Q16620 32-822): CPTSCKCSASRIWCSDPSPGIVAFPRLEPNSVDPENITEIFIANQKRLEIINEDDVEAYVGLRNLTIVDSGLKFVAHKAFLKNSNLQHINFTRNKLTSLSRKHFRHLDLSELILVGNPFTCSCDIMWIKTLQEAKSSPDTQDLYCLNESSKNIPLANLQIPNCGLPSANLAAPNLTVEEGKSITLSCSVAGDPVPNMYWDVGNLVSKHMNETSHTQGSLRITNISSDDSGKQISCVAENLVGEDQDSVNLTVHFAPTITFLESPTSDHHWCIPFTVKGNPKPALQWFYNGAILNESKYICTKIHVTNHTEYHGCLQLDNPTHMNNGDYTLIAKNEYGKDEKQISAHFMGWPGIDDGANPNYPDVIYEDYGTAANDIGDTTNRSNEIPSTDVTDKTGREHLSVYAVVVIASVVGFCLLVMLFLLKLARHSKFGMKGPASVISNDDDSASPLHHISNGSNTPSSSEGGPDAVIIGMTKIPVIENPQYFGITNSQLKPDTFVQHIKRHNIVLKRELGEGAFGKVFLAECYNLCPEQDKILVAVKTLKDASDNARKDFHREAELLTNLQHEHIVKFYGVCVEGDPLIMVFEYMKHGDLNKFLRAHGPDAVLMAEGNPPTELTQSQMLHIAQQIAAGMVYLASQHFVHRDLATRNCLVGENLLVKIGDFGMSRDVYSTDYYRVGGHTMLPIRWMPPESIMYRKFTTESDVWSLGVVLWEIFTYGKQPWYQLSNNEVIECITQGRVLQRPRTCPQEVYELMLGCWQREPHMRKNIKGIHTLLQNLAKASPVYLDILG
Protocol: as §1

CaMKIIβ(h), sequence (Q13554 whole entry): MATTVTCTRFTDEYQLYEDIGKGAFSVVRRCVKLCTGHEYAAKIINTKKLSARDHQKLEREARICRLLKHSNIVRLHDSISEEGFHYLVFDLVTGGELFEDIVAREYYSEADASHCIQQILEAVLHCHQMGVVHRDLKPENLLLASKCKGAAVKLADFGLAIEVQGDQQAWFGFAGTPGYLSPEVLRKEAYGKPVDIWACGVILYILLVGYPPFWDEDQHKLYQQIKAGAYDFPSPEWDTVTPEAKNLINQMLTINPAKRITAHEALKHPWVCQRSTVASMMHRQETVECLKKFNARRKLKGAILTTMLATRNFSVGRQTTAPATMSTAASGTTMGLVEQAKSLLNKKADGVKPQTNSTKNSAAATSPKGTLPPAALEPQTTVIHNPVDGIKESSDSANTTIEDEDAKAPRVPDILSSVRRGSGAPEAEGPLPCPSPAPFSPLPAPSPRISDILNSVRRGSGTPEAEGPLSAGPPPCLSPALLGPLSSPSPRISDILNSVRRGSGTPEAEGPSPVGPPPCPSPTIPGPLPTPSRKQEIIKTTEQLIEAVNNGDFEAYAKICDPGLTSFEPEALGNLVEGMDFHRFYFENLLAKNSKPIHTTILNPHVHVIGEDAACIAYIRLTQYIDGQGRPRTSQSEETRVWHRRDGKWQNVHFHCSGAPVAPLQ
Blk(h), sequence (P51451 whole entry): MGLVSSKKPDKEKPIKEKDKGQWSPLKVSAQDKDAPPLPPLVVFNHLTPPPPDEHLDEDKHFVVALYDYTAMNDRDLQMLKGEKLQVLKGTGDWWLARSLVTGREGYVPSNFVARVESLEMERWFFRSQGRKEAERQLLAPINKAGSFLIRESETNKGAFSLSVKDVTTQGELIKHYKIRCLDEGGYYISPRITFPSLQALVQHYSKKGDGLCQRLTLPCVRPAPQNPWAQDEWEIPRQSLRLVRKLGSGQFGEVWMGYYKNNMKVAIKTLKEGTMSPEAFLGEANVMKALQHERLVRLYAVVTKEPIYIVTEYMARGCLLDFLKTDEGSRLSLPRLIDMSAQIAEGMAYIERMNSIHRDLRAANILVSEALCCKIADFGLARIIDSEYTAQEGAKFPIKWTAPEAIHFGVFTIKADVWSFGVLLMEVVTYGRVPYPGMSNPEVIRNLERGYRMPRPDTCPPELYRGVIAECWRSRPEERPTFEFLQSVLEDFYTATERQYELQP

COc1ccc(OC)c(NS(=O)(=O)c2ccc(NC(=O)CCSc3ccc(C)cc3)cc2)c1 [Compound A41]
Activity(%) (CaMKIIβ(h)): 112% | Activity(%) (Blk(h)): 99% | Activity(%) (Mnk2(h)): 107% | IC50 [1]: 2.5 nM | Activity(%) (WNK2(h)): 90% | Activity(%) (TrkB(h)): 108%
